Laboratory results: the NIST ThermoML archive (doi:10.1016/j.fluid.2016.01.013)
Numbers after ± are expanded uncertainties.

Test: xn = mol fraction of the nth substance listed
Conditions: for kinematic viscosity: Liquid, Surface laser light scattering (SLLS)

C=C(F)C(F)(F)F [2,3,3,3-tetrafluoro-1-propene] + FCC(F)(F)F
Conditions	kinematic viscosity [m2/s]	surface tension liquid-gas [mN/m]
293.15 K, x2 = 0.807	1.62e-07 ± 1e-08	8.25 ± 0.25
293.2 K, x2 = 0.6018	1.61e-07 ± 1e-08	7.8 ± 0.23
293.22 K, x2 = 0.3196	1.49e-07 ± 1e-08	7.38 ± 0.22
303.13 K, x2 = 0.6018	1.43e-07 ± 9.9e-09	6.59 ± 0.2
303.15 K, x2 = 0.807	1.47e-07 ± 1e-08	6.99 ± 0.21
303.21 K, x2 = 0.3196	1.35e-07 ± 9.7e-09	6.14 ± 0.18
313.12 K, x2 = 0.3196	1.25e-07 ± 9.4e-09	4.93 ± 0.15
313.15 K, x2 = 0.6018	1.29e-07 ± 9.5e-09	5.41 ± 0.16
323.1 K, x2 = 0.3196	1.15e-07 ± 9.1e-09	3.95 ± 0.12
323.15 K, x2 = 0.807	1.26e-07 ± 9.4e-09	4.55 ± 0.14
323.16 K, x2 = 0.6018	1.22e-07 ± 9.3e-09	4.24 ± 0.13
333.12 K, x2 = 0.6018	1.12e-07 ± 9.1e-09	3.15 ± 0.09
333.15 K, x2 = 0.807	1.13e-07 ± 9.1e-09	3.41 ± 0.1
333.16 K, x2 = 0.3196	1.07e-07 ± 8.9e-09	2.87 ± 0.09
343.14 K, x2 = 0.807	1.04e-07 ± 8.8e-09	2.39 ± 0.07
343.16 K, x2 = 0.6018	1e-07 ± 8.7e-09	2.11 ± 0.06
343.19 K, x2 = 0.3196	9.77e-08 ± 8.7e-09	1.88 ± 0.06
353.1 K, x2 = 0.807	9.22e-08 ± 8.6e-09	1.31 ± 0.04
353.16 K, x2 = 0.3196	8.7e-08 ± 8.4e-09	1 ± 0.03
353.19 K, x2 = 0.6018	8.9e-08 ± 8.5e-09	1.17 ± 0.04
358.15 K, x2 = 0.3196	8.36e-08 ± 8.4e-09	0.6 ± 0.02
363.16 K, x2 = 0.807	8.21e-08 ± 8.4e-09	0.53 ± 0.02
363.19 K, x2 = 0.6018	7.95e-08 ± 8.4e-09	0.37 ± 0.01

F/C=C/C(F)(F)F [trans-1,3,3,3-tetrafluoropropene] + FCC(F)(F)F
x2 = 0.4446
Conditions	kinematic viscosity [m2/s]	surface tension liquid-gas [mN/m]
293.1 K	1.78e-07 ± 1.1e-08	8.89 ± 0.13
303.16 K	1.62e-07 ± 1e-08	7.58 ± 0.11
313.12 K	1.45e-07 ± 1e-08	6.34 ± 0.1
323.11 K	1.3e-07 ± 9.5e-09	5.16 ± 0.08
333.14 K	1.21e-07 ± 9.3e-09	3.98 ± 0.06
343.14 K	1.12e-07 ± 9.1e-09	2.92 ± 0.04
353.1 K	1.02e-07 ± 8.8e-09	1.92 ± 0.03
363.1 K	9e-08 ± 8.5e-09	1.01 ± 0.02
369.15 K	8.63e-08 ± 8.4e-09	0.53 ± 0.01
